Measured values from patent publication US11174268B2, “Benzenesulfonamide compouds and their use as therapeutic agents” (Xenon Pharmaceuticals Inc., priority 2016, dated 2021).
Structures can show the parent of a compound that is named as a salt. Where two headings read alike, the source gives them in different places.

Key:
NaV1.5 = NaV1.5 (Homo sapiens (Human), UniProt Q14524); test: Sodium Influx Assay (Flux), NaV1.5
NaV1.1 = NaV1.1 (Homo sapiens (Human), UniProt P35498); test: Sodium Influx Assay (Flux), NaV1.1; assay type: cell-based; details: Trex HEK293 cells, ANG2 dye, inactivated state;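 further: channels co-expressed with human β1 subunit and held open by modulators, cells exposed to compounds for one hour at room temperature, IC50 from percent inhibition of influx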
NaV1.6 = NaV1.6 (Homo sapiens (Human), UniProt Q9UQD0); test: Sodium Influx Assay (Flux), NaV1.6; assay type: cell-based; details: Trex HEK293 cells, ANG2 dye, inactivated state;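 further: Tetracycline-induced cells, compounds applied for one hour at room temperature with modulators holding channels open, IC50 from percent inhibition of sodium influx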
[1] = read-out: Flux NaV1.5 IC50, Trex HEK293 cells, ANG2 dye, inactivated state

NaV1.5, sequence (Q14524 other isoform, or with tags, fused parts or gaps): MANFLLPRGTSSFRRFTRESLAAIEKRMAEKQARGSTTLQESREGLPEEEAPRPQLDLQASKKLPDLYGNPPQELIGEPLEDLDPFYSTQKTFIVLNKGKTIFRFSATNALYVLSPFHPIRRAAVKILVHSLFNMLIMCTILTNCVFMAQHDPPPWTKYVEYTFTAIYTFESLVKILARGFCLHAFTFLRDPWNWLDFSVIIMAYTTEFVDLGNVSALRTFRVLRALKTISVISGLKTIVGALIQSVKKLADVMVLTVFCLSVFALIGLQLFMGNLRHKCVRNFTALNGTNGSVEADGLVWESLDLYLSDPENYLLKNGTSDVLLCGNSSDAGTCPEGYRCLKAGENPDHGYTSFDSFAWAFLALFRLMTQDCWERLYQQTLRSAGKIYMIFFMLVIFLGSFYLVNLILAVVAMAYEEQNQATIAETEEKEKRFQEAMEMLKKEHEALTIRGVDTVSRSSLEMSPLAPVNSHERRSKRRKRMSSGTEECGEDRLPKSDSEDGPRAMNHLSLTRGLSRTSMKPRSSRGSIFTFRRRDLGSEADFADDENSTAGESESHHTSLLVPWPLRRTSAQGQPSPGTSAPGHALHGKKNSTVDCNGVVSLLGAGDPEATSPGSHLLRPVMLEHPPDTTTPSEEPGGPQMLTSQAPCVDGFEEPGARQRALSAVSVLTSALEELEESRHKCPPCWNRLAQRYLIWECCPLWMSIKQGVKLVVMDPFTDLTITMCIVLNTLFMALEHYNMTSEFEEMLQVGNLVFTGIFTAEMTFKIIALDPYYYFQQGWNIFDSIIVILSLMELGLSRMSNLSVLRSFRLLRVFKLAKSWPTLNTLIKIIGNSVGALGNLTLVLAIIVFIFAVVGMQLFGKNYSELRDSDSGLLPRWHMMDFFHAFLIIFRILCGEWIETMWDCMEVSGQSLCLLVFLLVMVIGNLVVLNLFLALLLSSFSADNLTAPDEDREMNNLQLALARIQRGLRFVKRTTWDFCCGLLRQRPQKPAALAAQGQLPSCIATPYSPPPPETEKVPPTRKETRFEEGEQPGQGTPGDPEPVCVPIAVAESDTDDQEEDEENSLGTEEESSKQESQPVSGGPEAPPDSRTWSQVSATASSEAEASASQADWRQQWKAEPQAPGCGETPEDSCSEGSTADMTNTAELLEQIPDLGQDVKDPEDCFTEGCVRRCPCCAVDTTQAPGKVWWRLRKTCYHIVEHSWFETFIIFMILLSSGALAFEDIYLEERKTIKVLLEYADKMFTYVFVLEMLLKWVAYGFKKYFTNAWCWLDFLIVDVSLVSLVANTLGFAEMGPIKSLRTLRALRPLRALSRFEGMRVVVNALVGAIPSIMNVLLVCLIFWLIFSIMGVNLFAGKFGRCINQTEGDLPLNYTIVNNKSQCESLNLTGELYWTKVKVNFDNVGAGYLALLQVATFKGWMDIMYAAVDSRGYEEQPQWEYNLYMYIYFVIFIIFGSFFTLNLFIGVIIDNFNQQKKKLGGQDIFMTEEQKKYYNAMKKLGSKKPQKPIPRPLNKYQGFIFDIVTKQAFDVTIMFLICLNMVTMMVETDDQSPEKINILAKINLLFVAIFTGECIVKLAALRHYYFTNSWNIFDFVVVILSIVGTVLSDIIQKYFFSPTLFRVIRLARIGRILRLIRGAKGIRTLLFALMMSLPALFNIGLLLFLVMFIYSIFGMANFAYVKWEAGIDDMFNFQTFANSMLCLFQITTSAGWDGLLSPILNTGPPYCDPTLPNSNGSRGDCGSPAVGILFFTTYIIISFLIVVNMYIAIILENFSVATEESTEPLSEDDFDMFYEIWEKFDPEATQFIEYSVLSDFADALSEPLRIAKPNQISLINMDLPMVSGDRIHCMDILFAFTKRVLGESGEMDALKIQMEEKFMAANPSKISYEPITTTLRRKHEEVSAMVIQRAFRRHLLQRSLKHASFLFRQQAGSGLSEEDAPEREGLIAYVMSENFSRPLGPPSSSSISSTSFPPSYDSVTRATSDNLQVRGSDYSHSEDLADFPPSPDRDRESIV

Molecule	IC50 (NaV1.5; [1]) [µM]	IC50 (NaV1.1) [µM]	IC50 (NaV1.6) [µM]	IC50 (NaV1.5) [µM]
O=S(=O)(Nc1ncns1)c1ccc(NCc2ccccc2)c(Cl)c1 [Example 33, 4-(Benzylamino)-3-chloro-N-(1,2,4-thiadiazol-5-yl)benzenesulfonamide]	25.8	2.99	0.462	–
C[C@H](Nc1ccc(S(=O)(=O)Nc2cscn2)cc1Cl)c1ccccc1 [Example 24, (S)-3-chloro-4-((1-phenylethyl)amino)-N-(thiazol-4-yl)benzenesulfonamide]	8.32	5.85	4.09	–
C[C@H](Nc1cc(F)c(S(=O)(=O)Nc2nccs2)cc1Cl)c1ccc(F)c(F)c1 [Example 53, (S)-5-chloro-4-((1-(3,4-difluorophenyl)ethyl)amino)-2-fluoro-N-(thiazol-2-yl)benzenesulfonamide]	6.89	0.726	0.741	–
C[C@H](Nc1cc(F)c(S(=O)(=O)Nc2nccs2)cc1Cl)c1ccc2ccccc2c1 [Example 15, (S)-5-chloro-2-fluoro-4-((1-(naphthalen-2-yl)ethyl)amino)-N-(thiazol-2-yl)benzenesulfonamide]	23.6	9.41	7.15	–
CC(CNc1ccc(S(=O)(=O)Nc2ncns2)cc1Cl)c1ccccc1 (stereo not drawn) [Example 34, 3-chloro-4-((2-phenylpropyl)amino)-N-(1,2,4-thiadiazol-5-yl)benzenesulfonamide]	4.91	0.84	1.27	–
CN(Cc1cccc(F)c1CNc1cc(F)c(S(=O)(=O)Nc2cscn2)c(F)c1)C1COC1 [Example 181, 2,6-difluoro-4-((2-fluoro-6-((methyl(oxetan-3-yl)amino)methyl)benzyl)amino)-N-(thiazol-4-yl)benzenesulfonamide formate]	30	10.6	2.96	–
N#Cc1ccccc1CNc1cc(F)c(S(=O)(=O)Nc2nccs2)cc1Cl [Example 17, 5-chloro-4-((2-cyanobenzyl)amino)-2-fluoro-N-(thiazol-2-yl)benzenesulfonamide]	8.46	0.494	0.308	–
O=S(=O)(Nc1cscn1)c1c(F)cc(NCc2cccc(F)c2CN2CCC2)cc1F [Example 196, 4-((2-(azetidin-1-ylmethyl)-3-fluorobenzyl)amino)-2,6-difluoro-N-(thiazol-4-yl)benzenesulfonamide 2,2,2-trifluoroacetate]	30	25.9	0.187	–
O=S(=O)(Nc1cscn1)c1c(F)cc(NCc2c(F)cccc2CN2CCC23CCC3)cc1F [Example 173, 4-((2-((1-azaspiro[3.3]heptan-1-yl)methyl)-6-fluorobenzyl)amino)-2,6-difluoro-N-(thiazol-4-yl)benzenesulfonamide formate]	19.5	7.22	0.05	–
2,6-difluoro-4-((2-fluoro-6-((3-hydroxy-3-methylazetidin-1-yl)methyl)benzyl)amino)-N-(thiazol-4-yl)benzenesulfonamide formate [Example 169]	29	6.38	0.011	–
CN(Cc1cccc(F)c1CNc1cc(F)c(S(=O)(=O)Nc2cscn2)c(F)c1)C1CCC1 [Example 179, 4-((2-((cyclobutyl(methyl)amino)methyl)-6-fluorobenzyl)amino)-2,6-difluoro-N-(thiazol-4-yl)benzenesulfonamide formate]	6.42	4.6	0.08	–
COCc1cccc(F)c1CNc1cc(F)c(S(=O)(=O)Nc2cscn2)cc1Cl [Example 218, 5-chloro-2-fluoro-4-((2-fluoro-6-(methoxymethyl)benzyl)amino)-N-(thiazol-4-yl)benzenesulfonamide]	20.9	28.4	3.21	–
CN1CC2(C1)CN(Cc1cccc(Cl)c1CNc1cc(F)c(S(=O)(=O)Nc3cscn3)cc1Cl)C2 [Example 292, 5-chloro-4-((2-chloro-6-((6-methyl-2,6-diazaspiro[3.3]heptan-2-yl)methyl)benzyl)amino)-2-fluoro-N-(thiazol-4-yl)benzenesulfonamide 2,2,2-trifluoroacetate]	8.4	2.72	0.624	–
Cc1c(NCc2ccccc2CN2CCC2(C)C)cc(F)c(S(=O)(=O)Nc2cscn2)c1F [Example 305, 4-((2-((2,2-dimethylazetidin-1-yl)methyl)benzyl)amino)-2,6-difluoro-3-methyl-N-(thiazol-4-yl)benzenesulfonamide 2,2,2-trifluoroacetate]	30	14.2	0.057	–
C[C@H](Oc1cc(F)c(S(=O)(=O)Nc2cscn2)c(F)c1)c1ccccc1F [Example 232, (S)-2,6-difluoro-4-(1-(2-fluorophenyl)ethoxy)-N-(thiazol-4-yl)benzenesulfonamide]	11.2	21.2	1.75	–
O=S(=O)(Nc1cscn1)c1cc(Cl)c(NCc2c(F)cccc2CN2CC3(CCC3)C2)cc1F [Example 128, 4-((2-((2-azaspiro[3.3]heptan-2-yl)methyl)-6-fluorobenzyl)amino)-5-chloro-2-fluoro-N-(thiazol-4-yl)benzenesulfonamide]	–	5.37	0.208	6.72
O=S(=O)(Nc1nccs1)c1cc(Cl)c(N[C@@H](CN2CCCC2)c2ccccc2)cc1F [Example 71, (R)-5-chloro-2-fluoro-4-((1-phenyl-2-(pyrrolidin-1-yl)ethyl)amino)-N-(thiazol-2-yl)benzenesulfonamide]	30	30	30	–
CN(Cc1cccc(F)c1CNc1cc(F)c(S(=O)(=O)Nc2ccsn2)c(F)c1)C(C)(C)C [Example 189, 4-((2-((tert-butyl(methyl)amino)methyl)-6-fluorobenzyl)amino)-2,6-difluoro-N-(isothiazol-3-yl)benzenesulfonamide formate]	30	30	0.522	–
CC[C@H](Nc1cc(F)c(S(=O)(=O)Nc2ccncn2)c(F)c1)c1cc(F)ccc1Cl [Example 276, (S)-4-((1-(2-chloro-5-fluorophenyl)propyl)amino)-2,6-difluoro-N-(pyrimidin-4-yl)benzenesulfonamide]	24.3	3.6	0.265	–
O=S(=O)(Nc1cscn1)c1cc(Cl)c(NCc2cc(CCN3CC(F)C3)ccc2F)cc1F [Example 263, 5-chloro-2-fluoro-4-((2-fluoro-5-(2-(3-fluoroazetidin-1-yl)ethyl)benzyl)amino)-N-(thiazol-4-yl)benzenesulfonamide formate]	4.78	7.71	1.02	–
(S)-5-chloro-2-fluoro-4-((1-(isoquinolin-8-yl)ethyl)amino)-N-(thiazol-2-yl)benzenesulfonamide [Example 12]	30	30	1.98	–
O=S(=O)(Nc1cscn1)c1c(F)cc(NCc2c(F)cccc2CN2CC3(CC3)C2)cc1F [Example 186, 4-((2-((5-azaspiro[2.3]hexan-5-yl)methyl)-6-fluorobenzyl)amino)-2,6-difluoro-N-(thiazol-4-yl)benzenesulfonamide formate]	9.12	15.5	0.019	–
COCc1ccc(F)c([C@H](C)Nc2cc(F)c(S(=O)(=O)Nc3cscn3)cc2Cl)c1 [Example 280, (S)-5-chloro-2-fluoro-4-((1-(2-fluoro-5-(methoxymethyl)phenyl)ethyl)amino)-N-(thiazol-4-yl)benzenesulfonamide]	23.9	8.73	1.39	–
O=S(=O)(Nc1cscn1)c1c(F)cc(NCc2c(F)cccc2CN2CC3(C2)CC3(F)F)cc1F [Example 163, 4-((2-((1,1-difluoro-5-azaspiro[2.3]hexan-5-yl)methyl)-6-fluorobenzyl)amino)-2,6-difluoro-N-(thiazol-4-yl)benzenesulfonamide]	30	6.35	0.288	–
O=S(=O)(Nc1nccs1)c1cc(Cl)c(NC2(c3cccc(F)c3)CCC2)cc1F [Example 106, 5-chloro-2-fluoro-4-((1-(3-fluorophenyl)cyclobutyl)amino)-N-(thiazol-2-yl)benzenesulfonamide]	10.1	3.7	0.533	–
CC1(C)CN(Cc2cccc(F)c2CNc2cc(F)c(S(=O)(=O)Nc3cscn3)c(F)c2)C1 [Example 170, 4-((2-((3,3-dimethylazetidin-1-yl)methyl)-6-fluorobenzyl)amino)-2,6-difluoro-N-(thiazol-4-yl)benzenesulfonamide]	–	24.7	0.176	15.2
(R)-5-chloro-2-fluoro-4-((1-(isoquinolin-8-yl)ethyl)amino)-N-(thiazol-2-yl)benzenesulfonamide [Example 13]	30	30	5.89	–
O=S(=O)(Nc1cccnn1)c1cc(Cl)c(NCc2c(F)cccc2CN2CCC2)cc1F [Example 260, 4-((2-(azetidin-1-ylmethyl)-6-fluorobenzyl)amino)-5-chloro-2-fluoro-N-(pyridazin-3-yl)benzenesulfonamide]	30	30	1.88	–
CC[C@H](Nc1cc(F)c(S(=O)(=O)Nc2cscn2)cc1Cl)c1ccccc1Cl [Example 222, (S)-5-chloro-4-((1-(2-chlorophenyl)propyl)amino)-2-fluoro-N-(thiazol-4-yl)benzenesulfonamide]	8.35	3.99	1.93	–
COCc1ccc(F)c([C@H](C)Nc2cc(F)c(S(=O)(=O)Nc3cscn3)c(F)c2)c1 [Example 228, (S)-2,6-difluoro-4-((1-(2-fluoro-5-(methoxymethyl)phenyl)ethyl)amino)-N-(thiazol-4-yl)benzenesulfonamide]	27.5	13.2	1.94	–
